Patent US5686458A, “Quinazoline deriviates for treating peptic ulcer” (Yuhan Corporation, priority 1992, dated 1997)

Key:
[1] = molecular target: T1, H^+ /K^+ ATPase (proton pump), gastric vesicles (Sus scrofa, UniProt P19156); experiment: Determination of H+/K+ ATPase activity, Lineweaver-Burk kinetics versus K+ (Experiment 4-2); type: biochemical, pig; conditions: for Competitive inhibition with K+ at the K+ binding site of proton pump: Lineweaver-Burk plot, KCl 0.1 to 30 mM
T1 construct: Gastric vesicles were prepared from pig stomach; from tissue; host or cells: pig stomach, lyophilized gastric vesicles
T1 sequence (P19156 2-1034 limits assumed): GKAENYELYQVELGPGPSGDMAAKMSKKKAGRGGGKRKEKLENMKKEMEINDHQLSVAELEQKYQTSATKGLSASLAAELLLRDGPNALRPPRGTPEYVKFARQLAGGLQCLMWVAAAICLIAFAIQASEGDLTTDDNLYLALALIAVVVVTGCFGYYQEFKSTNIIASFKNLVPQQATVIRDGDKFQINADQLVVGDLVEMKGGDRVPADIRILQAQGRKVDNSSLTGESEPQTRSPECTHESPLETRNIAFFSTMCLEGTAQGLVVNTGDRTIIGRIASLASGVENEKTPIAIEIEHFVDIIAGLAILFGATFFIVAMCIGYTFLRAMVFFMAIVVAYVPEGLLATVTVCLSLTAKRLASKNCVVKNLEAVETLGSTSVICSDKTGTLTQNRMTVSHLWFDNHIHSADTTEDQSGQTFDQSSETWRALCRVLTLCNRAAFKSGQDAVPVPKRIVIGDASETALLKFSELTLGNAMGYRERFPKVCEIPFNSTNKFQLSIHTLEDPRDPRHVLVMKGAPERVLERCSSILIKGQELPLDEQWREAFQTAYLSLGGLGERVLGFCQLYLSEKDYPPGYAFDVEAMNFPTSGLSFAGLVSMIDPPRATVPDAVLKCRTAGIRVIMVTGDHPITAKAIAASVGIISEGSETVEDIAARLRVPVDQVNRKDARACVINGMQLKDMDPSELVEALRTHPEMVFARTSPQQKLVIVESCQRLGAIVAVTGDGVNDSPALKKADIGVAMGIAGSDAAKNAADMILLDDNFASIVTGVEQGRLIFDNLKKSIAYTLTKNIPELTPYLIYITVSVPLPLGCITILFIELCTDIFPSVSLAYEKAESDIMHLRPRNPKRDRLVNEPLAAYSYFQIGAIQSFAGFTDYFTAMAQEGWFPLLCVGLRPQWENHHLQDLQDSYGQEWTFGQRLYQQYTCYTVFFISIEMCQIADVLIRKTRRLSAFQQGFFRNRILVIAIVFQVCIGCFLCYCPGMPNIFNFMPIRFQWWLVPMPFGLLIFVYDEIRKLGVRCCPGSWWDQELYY
T1 sequence (P18434 whole entry partner): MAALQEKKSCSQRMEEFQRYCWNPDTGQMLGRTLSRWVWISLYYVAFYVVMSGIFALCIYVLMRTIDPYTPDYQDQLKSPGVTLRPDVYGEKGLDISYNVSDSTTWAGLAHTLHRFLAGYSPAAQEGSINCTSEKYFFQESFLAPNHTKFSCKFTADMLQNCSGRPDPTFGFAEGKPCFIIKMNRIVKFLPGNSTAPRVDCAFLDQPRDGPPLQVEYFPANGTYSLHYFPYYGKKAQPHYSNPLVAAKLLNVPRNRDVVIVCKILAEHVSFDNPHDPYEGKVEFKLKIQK
Experimental: Gastric vesicles were prepared from pig stomach by the method described in Saccomani G., et al., J. Biol. Chem. 250, 4802-4809 (1975). The vesicles were lyophilized and kept at -70° C. The protein content was determined by the method of Lowry et al., using bovine serum albumin as standard[see Lowry, O. H., Rosebrough, N. J. and Randall, R. J., J. Biol. Chem. 193, 265-275 (1951)].
Test tubes were divided into 4 groups, each having 3 test tubes. As a control group, group 1 was added with the 10 μl of DMSO. Groups 2, 3 and 4 were administered with the compound prepared in example 34 whose final concentration are 0.17 μM, 0.33 μM and 0.67 μM, respectively. Each group was further divided into 3 small groups, in which enzymes were activated by ATP; ATP and Mg^++; and ATP, Mg^++ and K^+, respectively.
To all of the test tubes, were added 100 μl of lyophilized vesicles prepared at the concentration of 25 μg protein/ml and then 90 μl of 5 mM Pipes/Tris buffer pH 7.0. The compound prepared in Example 34 was added to each Group until the final concentration thereof became 0.17, 0.33 or 0.67 μM, respectively, They were preincubated for 15 minutes.
50 μl of ATP(3 mM) was added to each of the four Groups and the 50 μl of MgCl2 (2 mM) was added only to the 2nd and 3rd small groups of all Groups. Further, to the 3rd small groups of all Groups, were added 50 μl of KCl solution of various concentrations(from 0.1 mM to 30 mM) and then 150μl of Pipes/Tris buffer of pH 7.0. To the rest small groups, Pipes/Tris buffer of pH 7.0 was added until the volume became the same as that of the 3rd small group.
The test tube's were incubated at 37° C. for 30 minutes and then the reaction was terminated by adding 25% cold trichloroacetic acid solution. They were centrifuged by means of a microcentrifuge and the supernatant was taken up for the measurement of the released inorganic phosphate content by an automatic analyzer(CIBA CORNING, Express 550).
In accordance with the same procedures as above, except that 15 and 30 μm of omeprazole and 0.75, 1.5 and 3.0 μm of SK&F96067 were used as comparative substances, released inorganic phosphate content was measured.
The released inorganic phosphate contents of the three small groups were considered as the activity of H^+ /K^+ ATPase at each of the concentrations employed. The specific activity of H^+ /K^+ ATPase was calculated from the following equation:
Specific activity=(A-C)-(B-C) . . . (V)
A is the activity of enzyme activated by ATP, Mg^++ and , K^+ ;
B is the activity of enzyme activated by ATP and M^++ and
C is the activity of enzyme activated by ATP.
The specific activity, thus calculated, of Groups 1, 2, 3 and 4 which employed DMSO and the compound of Example 34 at 3 different concentrations were then plotted with respect to the concentration of KCl in FIG. 1 according to the method of Lineweaver-Burk, wherein .box-solid., .quadrature. and .largecircle. represent the respective concentrations of the compound of Example 34 of 0.67 μM, 0.33 μM and 0.17 μM; and .oval-solid. represents concentration of the DMSO compound. FIG. 2 depicts the Lineweaver-Burk plot of the specific activities obtained from SK&F96067, wherein .box-solid., .quadrature. and .largecircle. represent its respective concentrations of 3.0 μM, 1.5 μM, 0.75 μM; and .oval-solid. represents concentration of the DMSO compound. FIG. 3 illustrates the Lineweaver-Burk plot of the specific activities obtained from omeprazole, wherein .oval-solid. and .quadrature. represent its concentrations of 15 μM and 30 μM; and .largecircle. represents the concentration of DMSO.

[2] = molecular target: T2, H^+ /K^+ ATPase, gastric vesicles (Sus scrofa, UniProt P19156); experiment: Reversibility of inhibition, Dilution and Washout method (Experiment 4-3); type: biochemical, pig; conditions: for Reversibility of the inhibition of the enzyme activity: conclusion from Table 4; for Inhibition of H+/K+ ATPase activity after Dilution and Washout: diluted 50 times; for Inhibition of H+/K+ ATPase activity after Dilution and Washout / Inhibition of H+/K+ ATPase activity before Dilution and Washout: pH 6.4, Example 34 at 6 μM, omeprazole and SK&F96067 at 60 μM
T2 construct: Gastric vesicles were prepared from pig stomach; from tissue; host or cells: pig stomach, lyophilized gastric vesicles
T2 sequence (P19156 2-1034 limits assumed): as the sequence (P19156 2-1034 limits assumed) above
T2 sequence (P18434 whole entry partner): as the sequence (P18434 whole entry partner) above
Experimental: The vesicles were lyophilized and kept at -70° C.
To all […] groups, was added 100 μl of lyophilized vesicles prepared in Experiment 4-1 at the concentration of 100 μg protein 1 ml. Then, 5 mM Pipes/Tris buffer(pH 6.4 ) was added to the three groups until the volume of test tubes became 150 μl. After the preincubation for 15 minutes, H^+ /K^+ ATPase activity was measured in accordance with the same procedures as in Experiment 4-2. The concentrations of the test substances as indicated above are the final concentrations.
After the completion of preincubation, each group was diluted 50 times with 5 mM Pipes/Tris buffer(pH 6.4), and then centrifuged for 60 minutes by means of Beckman ultracentrifuge(Model L8-80). The supernatant was discarded and the pellet was suspended with 5 mM Pipes/Tris buffer pH 6.4 until the volume became the same as the preincubation volume.

[3] = tested on: gastric secretion stimulated by histamine; experiment: Anti-secretory effects when gastric secretion is stimulated by histamine (Experiment 3-1); type: in vivo, Sprague-Dawley male rats; conditions: intravenous; for ED50: Rattus norvegicus, read-out: ED50, gastric secretion inhibition
Experimental: In accordance with the method [see Ghosh and Shild, et al., British Journal of pharmacology 13:54-61 (1958)], anti-secretory effects of the test substances were studied in this Experiment. Sprague-Dawley male rats having a body weight of 200±20 g were divided into 3 groups, Group 1 to be administered with the compound of Example 34, Group 2 to be administered with SK&F96067[see Keeling, D. […] The rats of each Group, deprived of food for 24 hours before the experiment with free access to water, were anesthetized by intraperitoneally administering of 1.5 g/kg of 20% aqueous urethane solution and positioned on the test plate which was heated and maintained at 37° C. The anesthetized rats were cannulated at the right jugular vein for the administration of the test compounds and the left jugular vein for the administration of stimulating substances. After an abdominal incision, tubes were inserted into the esophagus and duodenum, each of which was connected with saline in a thermostat and a fraction collector. […] To the left jugular vein, histamine was administered as a gastric secretion stimulator. […] The gastric secretion inhibition (%) of the test compounds was calculated from the following equation: The gastric secretion inhibition (%) of the test compounds =(A-C)/(A-B)×100 . . . (IV) in which […]

Row | Ki ([1]; Lineweaver-Burk, versus K+, pH 7.0) [nM] | SMILES | Inhibition overcome by increasing the concentration of KCl ([1]; 15 and 30 μM) | Reaction speed in comparison with the control values ([1]; 15 and 30 μM) | Competitive inhibition with K+ at the K+ binding site of proton pump [1] | Reversibility of the inhibition of the enzyme activity [2] | Inhibition of H+/K+ ATPase activity after Dilution and Washout [2] [%] | Inhibition of H+/K+ ATPase activity before Dilution and Washout [2] [%] | The gastric secretion inhibition (%) ([3]; 0.1 mg/kg) | The gastric secretion inhibition (%) ([3]; 0.3 mg/kg) | The gastric secretion inhibition (%) ([3]; 1.0 mg/kg) | ED50 [3] [mg/kg] | The gastric secretion inhibition (%) ([3]; 0.5 mg/kg) | The gastric secretion inhibition (%) ([3]; 3.0 mg/kg)
1 |  | COc1ccc2[nH]c([S+]([O-])Cc3ncc(C)c(OC)c3C)nc2c1 (stereo not shown) [Omeprazole, omeprazole, reference compound] | not overcome by increasing the concentration of KCl | greatly reduced | did not inhibit competitively | irreversible | 67 | 80 | 8.0 | 49.4 | 102.3 | 0.29 |  | 
2 | 40 | COc1cccc2c(N3CCc4ccccc4C3C)nc(Nc3ccc(F)cc3C)nc12.Cl (stereo not shown) [Example 34, 8-Methoxy-2-(4-Fluoro-2-Methyl-Phenylamino)-4-(1-Methyl-1,2,3,4-Tetrahydroisoquinoline-2-Yl)Quinazoline Hydrochloride] |  |  | inhibited competitively with K^+ | reversible | 16 | 84 |  |  | 52.0 | 0.9 | 44.4 | 76.5
